From paper PMC7312375, “A Novel, Pan-PDE Inhibitor Exerts Anti-Fibrotic Effects in Human Lung Fibroblasts via Inhibition of TGF-β Signaling and Activation of cAMP/PKA Signaling” (International Journal of Molecular Sciences, 2020)
pIC50: −log10 of the molar value.

Assays:
[1] = system: TGF-β1-induced MRC-5 cells; assay: Western blot of p-CREB; format: cell-based, human; conditions: 10 µM
Procedure: Western Blot analysis was performed according to a standard protocol. Briefly, MRC-5 cells were pre-incubated with the study compounds (10 µM) for 1 h, followed by 48 h incubation with TGF-β1 and then lysed in RIPA buffer (RIPA Lysis and Extraction Buffer, Thermo Fisher Scientific, Waltham, MA, USA) and supplemented with protease inhibitor cocktail and phosphatase inhibitor cocktail (both from Sigma Aldrich, St. Louis, MO, USA). Equal amounts of protein (30 µg) were separated using 10% SDS-polyacrylamide gels and transferred onto polyvinylidene difluoride (PVDF) membranes (Thermo Fisher Scientific, Waltham, MA, USA). […] ROD was measured according to the NIH guidelines with Fiji ImageJ Software. […]

PDE8A = target: T1, PDE8A (Homo sapiens, UniProt O60658); assay: PDE-Glo assay, human recombinant PDE8A; format: biochemical; conditions: n.a. = not active; read-out: PDE-IC50 8A
T1 construct: purchased SignalChem
Procedure: (§1) Inhibitory activities of the investigated compounds against various subtypes of human recombinant (hr)PDEs, namely PDE1A, PDE1B, PDE1C, PDE3A, PDE3B, PDE4A, PDE4B, PDE4D, PDE7A, and PDE8A were assessed using a PDE-Glo^TM Assay Kit (Promega, Madison, WI, USA) according to the protocol provided by the manufacturer. Briefly, appropriate amounts of each enzyme (SignalChem, Richmond, B.C., Canada), diluted with PDE-Glo reaction buffer, were distributed on a 384-well plate (Thermo Scientific, Waltham, MA, USA). The investigated compounds were dissolved in DMSO, diluted with the same vehicle, and mixed with the reaction buffer at a v/v ratio of 1:5. Thereafter, 1 µL of these mixtures and 2.5 µL of the cAMP solution as a substrate were added. The final cAMP concentration was 0.05 µM. The samples were incubated for 10 min at 30 °C. […] Finally, 10 µL of PDE-Glo kinase reagent was added, and luminescence was measured using the POLARstar Omega plate reader (BMG LABTECH, Ortenberg, Germany). […] The relative activities (A, %) of all samples were calculated from the following equation: A = [(LUsample − LUblank)/(LUcontrol − LUblank)]·100%; where LUcontrol is the luminescence of a control sample in the absence of a PDE inhibitor, LUsample is a luminescence of an investigated sample in the presence of an inhibitor, and LUblank is a luminescence of a sample in the absence of enzyme (activity = 0). […]

PDE4D = target: T2, PDE4D (Homo sapiens, UniProt Q08499); parameters: method as in PMID 31705904; conditions: published previously; read-out: PDE-IC50 4D; cited from earlier work
T2 construct: purchased SignalChem

[2] = system: TGF-β1-induced MRC-5 cells; assay: qPCR of myofibroblast marker genes in TGF-β1-induced MRC-5; format: cell-based, human; conditions: 10 µM, 24 h TGF-β1 5 ng/mL; compared to TGF-β1 alone
Procedure: Quantitative polymerase chain reaction (qPCR) was performed to assess the expression level of selected human genes: ACTA2, MYH11, SM22, COL1A1, TNC, FN1, and VCAN. MRC-5 cells were preincubated with study compounds (10 µM) for 1 h, followed by 24 h incubation with TGF-β1, and then total RNA was extracted using Total RNA Mini Kit (A&A Biotechnology, Gdynia, Poland) according to the manufacturer’s protocol. RNA concentration was measured with a BioSpectrometer® basic (Eppendorf), and equal amounts of total RNA (about 1 µg) were reverse-transcribed using the iScript™ cDNA Synthesis Kit (BioRad, Hercules, CA, USA). qPCR assays were performed using the CFX96 Touch Real-Time PCR Detection System (BioRad, Hercules, CA, USA) and SsoAdvanced^TM Universal SYBR® Green Supermix (BioRad, Hercules, CA, USA). qPCR cycling was performed with denaturation at 94 °C for 30 s, annealing at 59 °C for 30 s and an extension at 72 °C for 30 s. The relative abundance of specific mRNA transcripts was estimated based on cycle threshold (Ct) value and recalculated against the endogenous reference 18S ribosomal RNA gene (18S rRNA) using the ∆Ct method. The experiments were run three times in duplicates.

PDE4B = target: T3, PDE4B (Homo sapiens, UniProt Q07343); conditions: published previously; read-out: PDE-IC50 4B; cited from earlier work
T3 construct: purchased SignalChem

PDE1B = target: T4, PDE1B (Homo sapiens, UniProt Q01064); assay: PDE-Glo assay, human recombinant PDE1B; format: biochemical; conditions: n.a. = not active; read-out: PDE-IC50 1B
T4 construct: purchased SignalChem
Procedure: as §1

PDE7A = target: T5, PDE7A (Homo sapiens, UniProt Q13946); conditions: published previously; read-out: PDE-IC50 7A; cited from earlier work
T5 construct: purchased SignalChem
T5 sequence (Q13946 whole entry): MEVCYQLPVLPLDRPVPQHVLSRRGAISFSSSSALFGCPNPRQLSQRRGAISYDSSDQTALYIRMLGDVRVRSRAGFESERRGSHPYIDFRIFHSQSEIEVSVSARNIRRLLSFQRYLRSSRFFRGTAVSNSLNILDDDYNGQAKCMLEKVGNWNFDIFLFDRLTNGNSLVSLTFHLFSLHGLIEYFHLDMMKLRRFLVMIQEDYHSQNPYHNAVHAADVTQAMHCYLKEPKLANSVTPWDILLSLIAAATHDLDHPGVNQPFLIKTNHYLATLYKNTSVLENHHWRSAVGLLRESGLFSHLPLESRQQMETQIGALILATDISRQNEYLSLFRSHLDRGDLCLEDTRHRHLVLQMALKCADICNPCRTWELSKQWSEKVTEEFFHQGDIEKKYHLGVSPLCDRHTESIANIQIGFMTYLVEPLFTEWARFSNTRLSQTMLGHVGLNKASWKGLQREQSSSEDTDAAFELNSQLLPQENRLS

T2 sequence (Q08499 whole entry): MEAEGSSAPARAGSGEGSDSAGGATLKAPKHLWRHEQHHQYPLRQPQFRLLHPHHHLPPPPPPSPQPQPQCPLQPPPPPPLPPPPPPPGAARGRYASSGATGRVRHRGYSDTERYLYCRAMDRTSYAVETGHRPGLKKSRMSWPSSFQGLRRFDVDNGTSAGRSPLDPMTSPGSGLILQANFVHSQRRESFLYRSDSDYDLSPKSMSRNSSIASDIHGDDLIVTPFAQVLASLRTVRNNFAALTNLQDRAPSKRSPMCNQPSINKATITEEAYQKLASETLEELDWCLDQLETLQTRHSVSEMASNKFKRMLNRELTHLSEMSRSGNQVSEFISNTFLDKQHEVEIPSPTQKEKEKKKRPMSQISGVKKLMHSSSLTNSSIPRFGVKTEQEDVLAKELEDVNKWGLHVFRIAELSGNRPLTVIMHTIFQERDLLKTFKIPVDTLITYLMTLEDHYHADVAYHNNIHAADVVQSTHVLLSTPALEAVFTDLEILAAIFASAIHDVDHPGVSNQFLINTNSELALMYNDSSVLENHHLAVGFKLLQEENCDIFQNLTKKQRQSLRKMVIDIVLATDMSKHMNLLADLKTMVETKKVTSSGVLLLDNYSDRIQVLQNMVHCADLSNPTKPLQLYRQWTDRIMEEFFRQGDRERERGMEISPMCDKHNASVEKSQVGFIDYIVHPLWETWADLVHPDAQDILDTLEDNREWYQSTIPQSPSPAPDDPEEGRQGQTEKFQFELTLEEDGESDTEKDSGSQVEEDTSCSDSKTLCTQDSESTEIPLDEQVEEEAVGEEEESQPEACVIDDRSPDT
T3 sequence (Q07343 whole entry): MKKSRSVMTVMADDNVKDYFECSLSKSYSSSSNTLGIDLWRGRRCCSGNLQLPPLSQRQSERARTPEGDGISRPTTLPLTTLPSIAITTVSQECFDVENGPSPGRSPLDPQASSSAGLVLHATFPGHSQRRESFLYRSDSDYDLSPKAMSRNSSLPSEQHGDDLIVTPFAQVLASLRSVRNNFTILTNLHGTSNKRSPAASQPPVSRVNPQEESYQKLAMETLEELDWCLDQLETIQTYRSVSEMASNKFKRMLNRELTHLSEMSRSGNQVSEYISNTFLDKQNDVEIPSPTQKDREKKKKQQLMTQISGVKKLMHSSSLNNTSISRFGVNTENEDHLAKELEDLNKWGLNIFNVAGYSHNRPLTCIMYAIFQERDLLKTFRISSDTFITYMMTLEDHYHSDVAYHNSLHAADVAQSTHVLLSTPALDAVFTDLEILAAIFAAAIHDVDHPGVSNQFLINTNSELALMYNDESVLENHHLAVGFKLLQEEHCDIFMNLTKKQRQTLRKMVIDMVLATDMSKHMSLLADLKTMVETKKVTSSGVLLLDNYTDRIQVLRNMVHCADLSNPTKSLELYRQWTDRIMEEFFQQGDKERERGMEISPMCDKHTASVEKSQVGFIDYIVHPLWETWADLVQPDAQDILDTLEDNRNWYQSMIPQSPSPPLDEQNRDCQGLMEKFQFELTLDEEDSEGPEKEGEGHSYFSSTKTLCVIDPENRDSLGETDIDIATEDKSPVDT
T1 sequence (O60658 whole entry): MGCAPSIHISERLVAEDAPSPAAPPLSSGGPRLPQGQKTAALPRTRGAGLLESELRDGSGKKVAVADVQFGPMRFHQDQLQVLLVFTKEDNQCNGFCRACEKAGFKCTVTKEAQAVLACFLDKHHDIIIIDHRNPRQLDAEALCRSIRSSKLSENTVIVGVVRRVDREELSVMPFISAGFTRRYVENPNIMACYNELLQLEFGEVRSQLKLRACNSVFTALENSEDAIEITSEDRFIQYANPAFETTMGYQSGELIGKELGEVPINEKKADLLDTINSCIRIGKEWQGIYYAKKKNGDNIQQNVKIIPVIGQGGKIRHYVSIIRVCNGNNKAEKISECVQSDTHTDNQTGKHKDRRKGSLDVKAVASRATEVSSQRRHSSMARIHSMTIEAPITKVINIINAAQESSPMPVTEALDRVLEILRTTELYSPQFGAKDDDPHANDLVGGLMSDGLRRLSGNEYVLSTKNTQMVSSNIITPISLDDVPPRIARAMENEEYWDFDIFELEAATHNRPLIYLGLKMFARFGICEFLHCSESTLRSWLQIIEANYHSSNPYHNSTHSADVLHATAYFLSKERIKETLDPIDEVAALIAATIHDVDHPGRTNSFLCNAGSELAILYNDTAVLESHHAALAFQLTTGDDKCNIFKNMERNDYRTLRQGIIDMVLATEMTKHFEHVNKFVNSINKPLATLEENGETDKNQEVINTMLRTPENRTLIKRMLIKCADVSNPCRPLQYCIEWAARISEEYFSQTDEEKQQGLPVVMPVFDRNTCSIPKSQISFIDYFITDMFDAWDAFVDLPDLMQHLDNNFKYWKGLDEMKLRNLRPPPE
T4 sequence (Q01064 whole entry): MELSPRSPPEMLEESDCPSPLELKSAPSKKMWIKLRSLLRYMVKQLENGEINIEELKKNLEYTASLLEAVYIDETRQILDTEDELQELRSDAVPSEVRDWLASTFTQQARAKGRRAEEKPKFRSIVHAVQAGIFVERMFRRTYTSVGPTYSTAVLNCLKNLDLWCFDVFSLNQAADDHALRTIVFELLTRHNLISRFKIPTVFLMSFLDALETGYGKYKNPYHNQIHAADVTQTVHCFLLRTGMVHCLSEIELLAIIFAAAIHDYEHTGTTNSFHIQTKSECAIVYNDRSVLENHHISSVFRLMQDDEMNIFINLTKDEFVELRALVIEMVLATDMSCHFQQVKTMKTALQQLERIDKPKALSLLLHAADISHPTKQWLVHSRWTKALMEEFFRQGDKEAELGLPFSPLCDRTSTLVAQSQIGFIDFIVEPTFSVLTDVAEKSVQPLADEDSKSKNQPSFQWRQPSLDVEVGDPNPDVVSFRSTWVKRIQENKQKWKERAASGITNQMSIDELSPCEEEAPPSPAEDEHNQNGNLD

pIC50 (PDE1B)	Structure (SMILES)	CREB phosphorylation (immunoblot) [1]	pIC50 (PDE8A)	pIC50 (PDE4D)	decrease in TGF-β1-induced expression of ACTA2 [2]	decrease in TGF-β1-induced expression of COL1A1 [2]	decrease in TGF-β1-induced expression of MYH11 [2]	decrease in TGF-β1-induced expression of SM22 [2]	decrease in TGF-β1-induced expression of TNC [2]	pIC50 (PDE4B)	pIC50 (PDE7A)
	CCCCOc1nc2c(c(=O)n(C)c(=O)n2C)n1CCCC(=O)Nc1cc(C(C)(C)C)ccc1O [Compound 145, 4-(8-butoxy-1,3-dimethyl-2,6-dioxo-1,2,3,6-tetrahydro-7H-purin-7-yl)-N-(5-(tert-butyl)-2-hydroxyphenyl)butanamide]	increased CREB phosphorylation	4.14	4.86	two-fold	four-fold	five-fold	nine-fold	five-fold		
7.40	Cn1c(=O)c2c(nc(NCc3ccco3)n2CCCC(=O)NN=Cc2ccc(O)cc2O)n(C)c1=O [Compound 832, N′-(2,4-dihydroxybenzylidene)-4-(8-((furan-2-ylmethyl)amino)-1,3-dimethyl-2,6-dioxo-1,2,3,6-tetrahydro-7H-purin-7-yl)butanehydrazide]									5.36	4.98
